PubChem BioAssay (NCI)
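Grown in 96-well plates, cells were treated for 48 hours with each compound at five concentrations. Insufficient inhibition: endpoint recorded as highest concentration tested. The concentration for 50% growth inhibition is given as GI50. TGI: concentration producing complete growth inhibition.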

Legend:
Assay in all cases: NCI anticancer screen, dose series, 48 h
786-0 renal = tested on: 786-0 renal
A498 renal = tested on: A498 renal
A549 NSCLC = tested on: A549 NSCLC
CAKI-1 renal = tested on: CAKI-1 renal
CCRF-CEM leukemia = tested on: CCRF-CEM leukemia
COLO 205 colon = tested on: COLO 205 colon
DU-145 prostate = tested on: DU-145 prostate
EKVX NSCLC = tested on: EKVX NSCLC
HCT-116 colon = tested on: HCT-116 colon
HCT-15 colon = tested on: HCT-15 colon
HL-60(TB) leukemia = tested on: HL-60(TB) leukemia
HOP-62 NSCLC = tested on: HOP-62 NSCLC
HS 578T breast = tested on: HS 578T breast
IGROV1 ovarian = tested on: IGROV1 ovarian
K-562 leukemia = tested on: K-562 leukemia
KM12 colon = tested on: KM12 colon
LOX IMVI melanoma = tested on: LOX IMVI melanoma
M14 melanoma = tested on: M14 melanoma
MALME-3M melanoma = tested on: MALME-3M melanoma
MCF7 breast = tested on: MCF7 breast
MDA-MB-231 breast = tested on: MDA-MB-231 breast
MDA-MB-435 = tested on: MDA-MB-435
MOLT-4 leukemia = tested on: MOLT-4 leukemia
NCI-H226 lung = tested on: NCI-H226 lung
NCI-H23 lung = tested on: NCI-H23 lung
NCI-H460 lung = tested on: NCI-H460 lung
NCI-H522 lung = tested on: NCI-H522 lung
NCI/ADR-RES ovarian = tested on: NCI/ADR-RES ovarian
OVCAR-3 ovarian = tested on: OVCAR-3 ovarian
OVCAR-4 ovarian = tested on: OVCAR-4 ovarian
OVCAR-5 ovarian = tested on: OVCAR-5 ovarian
OVCAR-8 ovarian = tested on: OVCAR-8 ovarian
PC-3 prostate = tested on: PC-3 prostate
RPMI-8226 leukemia = tested on: RPMI-8226 leukemia
RXF 393 renal = tested on: RXF 393 renal
SF-268 CNS = tested on: SF-268 CNS
SF-295 CNS = tested on: SF-295 CNS
SF-539 CNS = tested on: SF-539 CNS
SK-MEL-2 melanoma = tested on: SK-MEL-2 melanoma
SK-MEL-28 melanoma = tested on: SK-MEL-28 melanoma
SK-MEL-5 melanoma = tested on: SK-MEL-5 melanoma
SK-OV-3 ovarian = tested on: SK-OV-3 ovarian
SN12C renal = tested on: SN12C renal
SNB-19 CNS = tested on: SNB-19 CNS
SR leukemia = tested on: SR leukemia
SW-620 colon = tested on: SW-620 colon
T-47D breast = tested on: T-47D breast
TK-10 renal = tested on: TK-10 renal
U251 CNS = tested on: U251 CNS
UACC-257 melanoma = tested on: UACC-257 melanoma
UACC-62 melanoma = tested on: UACC-62 melanoma
UO-31 renal = tested on: UO-31 renal

CCOC(=O)/C(C#N)=C\C=C(\Sc1nc2ccccc2s1)c1ccc(Cl)cc1
GI50 (786-0 renal): 19.3 µM
TGI (786-0 renal): 36.3 µM
GI50 (A498 renal): 27.7 µM
TGI (A498 renal): 72.5 µM
GI50 (A549 NSCLC): > 100 µM
TGI (A549 NSCLC): > 100 µM
GI50 (CAKI-1 renal): 19.5 µM
TGI (CAKI-1 renal): 41.4 µM
GI50 (CCRF-CEM leukemia): 2.28 µM
TGI (CCRF-CEM leukemia): 9.5 µM
GI50 (COLO 205 colon): 20.1 µM
TGI (COLO 205 colon): 42.8 µM
GI50 (DU-145 prostate): 18.7 µM
TGI (DU-145 prostate): 35.4 µM
GI50 (EKVX NSCLC): 14.8 µM
TGI (EKVX NSCLC): 31.6 µM
GI50 (HCT-116 colon): 17.1 µM
TGI (HCT-116 colon): 33.1 µM
GI50 (HCT-15 colon): 16.4 µM
TGI (HCT-15 colon): 45.2 µM
GI50 (HL-60(TB) leukemia): 24.2 µM
TGI (HL-60(TB) leukemia): > 100 µM
GI50 (HOP-62 NSCLC): 29.1 µM
TGI (HOP-62 NSCLC): 72.2 µM
GI50 (HS 578T breast): 31.6 µM
TGI (HS 578T breast): 68 µM
GI50 (IGROV1 ovarian): 18.8 µM
TGI (IGROV1 ovarian): 37.6 µM
GI50 (K-562 leukemia): 20.2 µM
TGI (K-562 leukemia): > 100 µM
GI50 (KM12 colon): 38 µM
TGI (KM12 colon): > 100 µM
GI50 (LOX IMVI melanoma): 10.9 µM
TGI (LOX IMVI melanoma): > 100 µM
GI50 (M14 melanoma): 26.4 µM
TGI (M14 melanoma): 54.3 µM
GI50 (MALME-3M melanoma): 19.4 µM
TGI (MALME-3M melanoma): 37.9 µM
GI50 (MCF7 breast): 29.1 µM
TGI (MCF7 breast): 84.5 µM
GI50 (MDA-MB-231 breast): 50.9 µM
TGI (MDA-MB-231 breast): > 100 µM
GI50 (MDA-MB-435): 16.8 µM
TGI (MDA-MB-435): 35.3 µM
GI50 (MOLT-4 leukemia): 3.88 µM
TGI (MOLT-4 leukemia): > 100 µM
GI50 (NCI-H226 lung): 24 µM
TGI (NCI-H226 lung): 46.7 µM
GI50 (NCI-H23 lung): 20.9 µM
TGI (NCI-H23 lung): 38.9 µM
GI50 (NCI-H460 lung): 80.8 µM
TGI (NCI-H460 lung): > 100 µM
GI50 (NCI-H522 lung): 18.5 µM
TGI (NCI-H522 lung): 41.4 µM
GI50 (NCI/ADR-RES ovarian): 27.5 µM
TGI (NCI/ADR-RES ovarian): 61.2 µM
GI50 (OVCAR-3 ovarian): 14.4 µM
TGI (OVCAR-3 ovarian): 27.5 µM
GI50 (OVCAR-4 ovarian): 22 µM
TGI (OVCAR-4 ovarian): 57.8 µM
GI50 (OVCAR-5 ovarian): > 100 µM
TGI (OVCAR-5 ovarian): > 100 µM
GI50 (OVCAR-8 ovarian): 30.4 µM
TGI (OVCAR-8 ovarian): 83.9 µM
GI50 (PC-3 prostate): 13.5 µM
TGI (PC-3 prostate): 26.3 µM
GI50 (RPMI-8226 leukemia): 2.47 µM
TGI (RPMI-8226 leukemia): 14 µM
GI50 (RXF 393 renal): 18.3 µM
TGI (RXF 393 renal): 37.6 µM
GI50 (SF-268 CNS): 31.8 µM
TGI (SF-268 CNS): > 100 µM
GI50 (SF-295 CNS): 37.9 µM
TGI (SF-295 CNS): > 100 µM
GI50 (SF-539 CNS): 22.1 µM
TGI (SF-539 CNS): 40.8 µM
GI50 (SK-MEL-2 melanoma): 14.8 µM
TGI (SK-MEL-2 melanoma): 33.5 µM
GI50 (SK-MEL-28 melanoma): 25.5 µM
TGI (SK-MEL-28 melanoma): 69.5 µM
GI50 (SK-MEL-5 melanoma): 15.1 µM
TGI (SK-MEL-5 melanoma): 31.9 µM
GI50 (SK-OV-3 ovarian): 39.6 µM
TGI (SK-OV-3 ovarian): > 100 µM
GI50 (SN12C renal): 19.9 µM
TGI (SN12C renal): 45.2 µM
GI50 (SNB-19 CNS): 66.6 µM
TGI (SNB-19 CNS): > 100 µM
GI50 (SR leukemia): 4.91 µM
TGI (SR leukemia): 46.9 µM
GI50 (SW-620 colon): 14.3 µM
TGI (SW-620 colon): 39.2 µM
GI50 (T-47D breast): 20.3 µM
TGI (T-47D breast): 45.1 µM
GI50 (TK-10 renal): 20 µM
TGI (TK-10 renal): 37.3 µM
GI50 (U251 CNS): 29 µM
TGI (U251 CNS): > 100 µM
GI50 (UACC-257 melanoma): 13.7 µM
TGI (UACC-257 melanoma): 46.8 µM
GI50 (UACC-62 melanoma): 29.8 µM
TGI (UACC-62 melanoma): 81.5 µM
GI50 (UO-31 renal): 17 µM
TGI (UO-31 renal): 35.4 µM
